Measurements taken from patent US20100292224A1, “ISOTHIAZOLIDINE 1,1-DIOXIDE AND TETRAHYDRO-2H-1,2-THIAZINE 1,1-DIOXIDE DERIVATIVES AS P2X7 MODULATORS” (GLAXO GROUP LIMITED, priority 2007, published 2010).

Molecular target: T1, human recombinant P2X7 receptors (Homo sapiens, UniProt Q99572)
T1 construct: expressed in transfected cells
T1 sequence (Q99572 1-595): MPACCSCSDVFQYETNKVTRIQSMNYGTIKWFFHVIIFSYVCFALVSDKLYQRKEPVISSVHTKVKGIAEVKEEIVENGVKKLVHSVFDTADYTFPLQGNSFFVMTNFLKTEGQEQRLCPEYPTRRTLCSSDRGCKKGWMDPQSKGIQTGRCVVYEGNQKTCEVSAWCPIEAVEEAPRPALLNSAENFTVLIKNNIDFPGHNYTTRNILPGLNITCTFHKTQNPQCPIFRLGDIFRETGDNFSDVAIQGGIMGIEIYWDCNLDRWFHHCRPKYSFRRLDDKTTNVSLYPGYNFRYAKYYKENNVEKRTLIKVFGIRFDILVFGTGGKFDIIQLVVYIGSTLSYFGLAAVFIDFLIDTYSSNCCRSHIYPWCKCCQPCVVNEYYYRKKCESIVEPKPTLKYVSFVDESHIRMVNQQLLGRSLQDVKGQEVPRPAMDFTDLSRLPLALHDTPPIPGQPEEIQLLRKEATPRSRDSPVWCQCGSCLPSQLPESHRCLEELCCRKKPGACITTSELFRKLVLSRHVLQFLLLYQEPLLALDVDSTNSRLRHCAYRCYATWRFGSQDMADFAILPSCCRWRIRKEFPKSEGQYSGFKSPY
Test: Ethidium Accumulation Assay
Type: cell-based
Conditions: HEK293 cells stably expressing human recombinant P2X7; blocking 1 mM ATP response; typically mean of more than one measurement; 'about' values; read-out: pIC50 in the Ethidium Accumulation Assay or a slightly modified version thereof (converted)
Experimental: Studies were performed using NaCl assay buffer of the following composition: 140 mM NaCl, 10 mM HEPES [4-(2-hydroxyethyl)-1-piperazine-1-ethanesulfonic acid], 5 mM N-methyl-D-glucamine, 5.6 mM KCl, 10 mM D-glucose, 0.5 mM CaCl2(pH 7.4).
Human Embryonic Kidney (HEK) 293 cells, stably expressing human recombinant P2X7 receptors, were grown in poly-D-lysine pretreated 96 well plates for 18-24 hours. (The cloning of the human P2X7 receptor is described in U.S. Pat. No. 6,133,434, e.g. see Example 3 therein). The cells were washed twice with 350 μl of the assay buffer, before addition of 50 μl of the assay buffer containing the putative P2X7 receptor antagonist compound. (A small amount of dimethyl sulfoxide, for initially dissolving the compound, is optionally used and present in this 50 μl test compound sample.) The cells were then incubated at room temperature (19-21° C.) for 30 min before addition of ATP and ethidium (100 μM final assay concentration). The ATP concentration was chosen to be close to the EC80 for the receptor type and was 1 mM for studies on the human P2X7 receptor. Incubations were continued for 8 or 16 min and were terminated by addition of 25 μl of 1.3M sucrose containing 4 mM of the P2X7 receptor antagonist Reactive Black 5 (Aldrich). Cellular accumulation of ethidium was determined by measuring fluorescence (excitation wavelength of 530 nm and emission wavelength of 620 nm) from below the plate with a Can berra Packard Fluorocount (14 Station Road, Pangbourne, Reading, Berkshire RG8 7AN, United Kingdom) or a FlexStation II 384 from Molecular Molecular Devices (660-665 Eskdale Road, Wokingham, Berkshire RG41 5TS, United Kingdom). Antagonist plC50 values for blocking ATP responses were determined using iterative curve fitting techniques.

| SMILES | IC50 [nM] |
| --- | --- |
| CCN1C(C(=O)NCc2ccc(Cl)cc2Cl)CCS1(=O)=O (stereo not shown) [Example 24, N-[(2,4-dichlorophenyl)methyl]-2-ethyl-3-isothiazolidinecarboxamide 1,1-dioxide] | 10 to 316 |
| CCN1C(C(=O)NCc2ccc(F)cc2C(F)(F)F)CCS1(=O)=O (stereo not shown) [Example 21, 2-ethyl-N-{[4-fluoro-2-(trifluoromethyl)phenyl]methyl}-3-isothiazolidinecarboxamide 1,1-dioxide] | 10 to 316 |
| CN1C(C(=O)NCc2ccc(Cl)cc2Cl)CCCS1(=O)=O (stereo not shown) [Example 35, N-[(2,4-dichlorophenyl)methyl]-2-methyltetrahydro-2H-1,2-thiazine-3-carboxamide 1,1-dioxide] | 10 to 316 |
| CC(C)N1C(C(=O)NCc2ccc(F)cc2Cl)CCCS1(=O)=O (stereo not shown) [Example 43, N-[(2-chloro-4-fluorophenyl)methyl]-2-(1-methylethyl)tetrahydro-2H-1,2-thiazine-3-carboxamide 1,1-dioxide] | 3980 to 15800 |
| CN1C(C(=O)NCc2ccc(Cl)cc2Cl)CCS1(=O)=O (stereo not shown) [Example 13, N-[(2,4-dichlorophenyl)methyl]-2-methyl-3-isothiazolidinecarboxamide 1,1-dioxide] | 10 to 316 |
| CCN1C(C(=O)NCc2ccc(F)c(F)c2Cl)CCS1(=O)=O (stereo not shown) [Example 31, N-[(2-chloro-3,4-difluorophenyl)methyl]-2-ethyl-3-isothiazolidinecarboxamide 1,1-dioxide] | 10 to 316 |
| CC(C)CN1C(C(=O)NCc2ccccc2Cl)CCS1(=O)=O (stereo not shown) [Example 11, N-[(2-chlorophenyl)methyl]-2-(2-methylpropyl)-3-isothiazolidinecarboxamide 1,1-dioxide] | 3980 to 15800 |
| Cc1c(Cl)cccc1CNC(=O)C1CCS(=O)(=O)N1C (stereo not shown) [Example 17, N-[(3-chloro-2-methylphenyl)methyl]-2-methyl-3-isothiazolidinecarboxamide 1,1-dioxide] | 10 to 316 |
| CC(C)N1C(C(=O)NCc2ccc(Cl)cc2Cl)CCS1(=O)=O (stereo not shown) [Example 27, N-[(2,4-dichlorophenyl)methyl]-2-(1-methylethyl)-3-isothiazolidinecarboxamide 1,1-dioxide] | 10 to 316 |
| CC(C)N1C(C(=O)NCc2ccc(F)cc2Cl)CCS1(=O)=O (stereo not shown) [Example 22, N-[(2-chloro-4-fluorophenyl)methyl]-2-(1-methylethyl)-3-isothiazolidinecarboxamide 1,1-dioxide] | 10 to 316 |
| CCN1C(C(=O)NCc2cccc(C(F)(F)F)c2Cl)CCS1(=O)=O (stereo not shown) [Example 32, N-{[2-chloro-3-(trifluoromethyl)phenyl]methyl}-2-ethyl-3-isothiazolidinecarboxamide 1,1-dioxide] | 10 to 316 |
| CCN1C(C(=O)NCc2ccc(Cl)cc2Cl)CCCS1(=O)=O (stereo not shown) [Example 36, N-[(2,4-dichlorophenyl)methyl]-2-ethyltetrahydro-2H-1,2-thiazine-3-carboxamide 1,1-dioxide] | 10 to 316 |
| CCN1C(C(=O)NCc2cccc(Cl)c2C)CCS1(=O)=O (stereo not shown) [Example 20, N-[(3-chloro-2-methylphenyl)methyl]-2-ethyl-3-isothiazolidinecarboxamide 1,1-dioxide] | 10 to 316 |
| CCN1C(C(=O)NCc2ccc(F)cc2Cl)CCS1(=O)=O (stereo not shown) [Example 15, N-[(2-chloro-4-fluorophenyl)methyl]-2-ethyl-3-isothiazolidinecarboxamide 1,1-dioxide] | 10 to 316 |
| CN1C(C(=O)NCc2cccc(C(F)(F)F)c2Cl)CCS1(=O)=O (stereo not shown) [Example 29, N-{[2-chloro-3-(trifluoromethyl)phenyl]methyl}-2-methyl-3-isothiazolidinecarboxamide 1,1-dioxide] | 10 to 316 |
| CN1C(C(=O)NCc2ccc(F)cc2C(F)(F)F)CCCS1(=O)=O (stereo not shown) [Example 48, N-{[4-fluoro-2-(trifluoromethyl)phenyl]methyl}-2-methyltetrahydro-2H-1,2-thiazine-3-carboxamide 1,1-dioxide] | 3980 to 15800 |
| Cc1c(Cl)cccc1CNC(=O)C1CCS(=O)(=O)N1C(C)C (stereo not shown) [Example 18, N-[(3-chloro-2-methylphenyl)methyl]-2-(1-methylethyl)-3-isothiazolidinecarboxamide 1,1-dioxide] | 10 to 316 |
| CCN1C(C(=O)NCc2ccccc2Cl)CCCS1(=O)=O (stereo not shown) [Example 39, N-[(2-chlorophenyl)methyl]-2-ethyltetrahydro-2H-1,2-thiazine-3-carboxamide 1,1-dioxide] | 3980 to 15800 |
| CN1C(C(=O)NCc2ccc(F)cc2Cl)CCS1(=O)=O (stereo not shown) [Example 3, N-[(2-chloro-4-fluorophenyl)methyl]-2-methyl-3-isothiazolidinecarboxamide 1,1-dioxide] | 10 to 316 |
| CC(C)CN1C(C(=O)NCc2ccc(Cl)cc2Cl)CCS1(=O)=O (stereo not shown) [Example 4, N-[(2,4-dichlorophenyl)methyl]-2-(2-methylpropyl)-3-isothiazolidinecarboxamide 1,1-dioxide] | 10 to 316 |
| Cc1cccc(Cl)c1CNC(=O)C1CCCS(=O)(=O)N1C(C)C (stereo not shown) [Example 41, N-[(2-chloro-6-methylphenyl)methyl]-2-(1-methylethyl)tetrahydro-2H-1,2-thiazine-3-carboxamide 1,1-dioxide] | 3980 to 15800 |
| CN1C(C(=O)NCc2ccc(F)c(F)c2Cl)CCS1(=O)=O (stereo not shown) [Example 30, N-[(2-chloro-3,4-difluorophenyl)methyl]-2-methyl-3-isothiazolidinecarboxamide 1,1-dioxide] | 10 to 316 |
| CC(C)N1C(C(=O)NCc2ccccc2Cl)CCCS1(=O)=O (stereo not shown) [Example 44, N-[(2-chlorophenyl)methyl]-2-(1-methylethyl)tetrahydro-2H-1,2-thiazine-3-carboxamide 1,1-dioxide] | 3980 to 15800 |
| CC(C)N1C(C(=O)NCc2ccc(F)cc2C(F)(F)F)CCCS1(=O)=O (stereo not shown) [Example 47, N-{[4-fluoro-2-(trifluoromethyl)phenyl]methyl}-2-(1-methylethyl)tetrahydro-2H-1,2-thiazine-3-carboxamide 1,1-dioxide] | 3980 to 15800 |
| CC(C)N1C(C(=O)NCc2ccc(F)c(F)c2F)CCCS1(=O)=O (stereo not shown) [Example 46, 2-(1-methylethyl)-N-[(2,3,4-trifluorophenyl)methyl]tetrahydro-2H-1,2-thiazine-3-carboxamide 1,1-dioxide] | 3980 to 15800 |
